Data set [1] is described as follows: Peptide stability by repeating the sVNT ELISA two months apart with the same solubilized peptide. The data set is classed as physicochemical. The conditions noted are these: ELISA tests two months apart with the same solubilized peptide. From the text: FIGS. 4A-B. Surrogate virus test results for peptide 122023-C. FIG. 4A are results obtained in a first experiment and FIG. 4B are results obtained in a second experiment two months later using the same solubilized peptide.
A general note: In an ELISA, binding on a coated surface is turned into a signal by an enzyme label.

Data set [2] deals with HRP-conjugated-S-protein-RBD binding to hACE2 (Severe acute respiratory syndrome coronavirus 2, UniProt P0DTC2). Put plainly: biochemical. More on the design: species or system SARS-CoV-2. Conditions: sVNT ELISA, dose-dependent, FIG. 4.
The next data set concerns SARS-CoV-2, USA-WA1/2020. The conditions noted are these: USA-WA1/2020, 1 h, 200 μM.
Data set [3] has as its target HRP-conjugated-S-protein-RBD (SARS-CoV-2), P0DTC2.

Data on three molecules can be found in US20230220029A1, “ANTIVIRAL […] AND USES THEREOF” (VIRGINIA COMMONWEALTH UNIVERSITY, priority 2020, published 2023).

Where a SMILES comes first, the peptide text is derived from it.

The IC50 is the concentration that gives 50% inhibition. A lower IC50 goes with higher potency.

On to `CC(C)C[C@H](NC(=O)[C@H](CC(=O)O)NC(=O)[C@H](CCC(=O)O)NC(=O)[C@H](CC(C)C)NC(=O)[C@H](CCC(N)=O)NC(=O)[C@H](CCC(=O)O)NC(=O)[C@H](CC(N)=O)NC(=O)[C@H](Cc1ccccc1)NC(=O)[C@H](CCCNC(=N)N)NC(=O)[C@H](CCC(=O)O)NC(=O)[C@H](CC(C)C)NC(=O)[C@H](Cc1ccccc1)NC(=O)[C@H](Cc1ccc(O)cc1)NC(=O)[C@H](CCCCN)NC(=O)[C@H](CC(C)C)NC(=O)[C@H](CCC(N)=O)NC(=O)[C@H](CCC(N)=O)NC(=O)[C@@H](N)CCC(=O)O)C(=O)N[C@@H](Cc1ccccc1)C(=O)N[C@@H](Cc1ccc(O)cc1)C(=O)N[C@@H](CCC(N)=O)C(=O)N[C@@H](CO)C(=O)N[C@@H](CO)C(=O)O` [Peptide 122023-C] (H-EQQLKYFLERFNEQLEDLFYQSS-OH), for which the peptide stability entry in data set [1] is “Excellent peptide stability”. The half-maximal inhibitory concentration (IC50) in data set [2] was around 0.0338 µM.

With `CC(C)C[C@H](NC(=O)[C@H](CCC(N)=O)NC(=O)[C@H](CCC(=O)O)NC(=O)[C@H](C)NC(=O)[C@H](Cc1ccccc1)NC(=O)[C@H](CCCNC(=N)N)NC(=O)[C@H](CCC(=O)O)NC(=O)[C@H](CC(C)C)NC(=O)[C@H](Cc1ccccc1)NC(=O)[C@H](Cc1ccc(O)cc1)NC(=O)[C@H](CCCCN)NC(=O)[C@H](CC(C)C)NC(=O)[C@H](CCC(N)=O)NC(=O)[C@H](CCC(N)=O)NC(=O)[C@@H](N)CCC(=O)O)C(=O)N[C@@H](CCC(=O)O)C(=O)N[C@@H](CCC(N)=O)C(=O)N[C@@H](CC(C)C)C(=O)N[C@@H](Cc1ccccc1)C(=O)N[C@@H](Cc1ccc(O)cc1)C(=O)N[C@@H](CCC(N)=O)C(=O)N[C@@H](CO)C(=O)N[C@@H](CO)C(=O)O` [Peptide 122023-A] (H-EQQLKYFLERFAEQLEQLFYQSS-OH; N-terminus and C-terminus assumed), the “inhibition at the highest concentration studied” value in the data set on SARS-CoV-2, USA-WA1/2020 is “up to 95%”.

Consider EQQLKYFLERFNEQLEDLFYQSS (modifications not checked) [peptide 122023-C], for which the concentration for half-maximal inhibition (IC50) in data set [3] turned out to be 0.1 mg/L.
